Experiments:
[1] = molar heat capacity at constant pressure; xn = mol fraction of the nth substance listed; settings: 101.3 kPa, Liquid, Small sample (50 mg) DSC
[2] = xn = mol fraction of the nth substance listed; settings: 101.3 kPa, Liquid, Vibrating tube method

CCCCn1cc[n+](C)c1.COS(=O)(=O)[O-] [1-butyl-3-methylimidazolium methyl sulfate] + C[N+](=O)[O-]
Settings	mass density, [2] [kg/m3]	molar heat capacity at constant pressure, [1] [J/K/mol]
293.15 K, x1 = 0.0522	1158.1	122.1
293.15 K, x1 = 0.1	1168.5	136.5
293.15 K, x1 = 0.1966	1182.1	166.4
293.15 K, x1 = 0.3059	1191.3	200.5
293.15 K, x1 = 0.4061	1196.9	231.4
293.15 K, x1 = 0.5025	1200.8	261.5
293.15 K, x1 = 0.5889	1203.5	288
293.15 K, x1 = 0.6844	1205.9	317.2
293.15 K, x1 = 0.7832	1207.8	347.4
293.15 K, x1 = 0.8654	1209.1	372.6
293.15 K, x1 = 0.9289	1210	392.1
298.15 K, x1 = 0.0522	1152.1	122.4
298.15 K, x1 = 0.1	1163	137
298.15 K, x1 = 0.1966	1177.3	167
298.15 K, x1 = 0.3059	1186.9	201.3
298.15 K, x1 = 0.4061	1192.8	232.5
298.15 K, x1 = 0.5025	1196.9	262.7
298.15 K, x1 = 0.5889	1199.8	289.4
298.15 K, x1 = 0.6844	1202.2	318.9
298.15 K, x1 = 0.7832	1204.3	349.2
298.15 K, x1 = 0.8654	1205.7	374.6
298.15 K, x1 = 0.9289	1206.7	394.3
303.15 K, x1 = 0.0522	1146.1	122.8
303.15 K, x1 = 0.1	1157.5	137.5
303.15 K, x1 = 0.1966	1172.4	167.7
303.15 K, x1 = 0.3059	1182.6	202.3
303.15 K, x1 = 0.4061	1188.7	233.6
303.15 K, x1 = 0.5025	1193	263.9
303.15 K, x1 = 0.5889	1196	290.9
303.15 K, x1 = 0.6844	1198.6	320.6
303.15 K, x1 = 0.7832	1200.8	351.1
303.15 K, x1 = 0.8654	1202.3	376.7
303.15 K, x1 = 0.9289	1203.3	396.5
308.15 K, x1 = 0.0522	1140.1	123.3
308.15 K, x1 = 0.1	1152	138.1
308.15 K, x1 = 0.1966	1167.6	168.4
308.15 K, x1 = 0.3059	1178.2	203.2
308.15 K, x1 = 0.4061	1184.7	234.8
308.15 K, x1 = 0.5025	1189.2	265.1
308.15 K, x1 = 0.5889	1192.3	292.4
308.15 K, x1 = 0.6844	1195	322.2
308.15 K, x1 = 0.7832	1197.4	352.9
308.15 K, x1 = 0.8654	1199	378.7
308.15 K, x1 = 0.9289	1200	398.7
313.15 K, x1 = 0.0522	1134.1	123.8
313.15 K, x1 = 0.1	1146.5	138.7
313.15 K, x1 = 0.1966	1162.8	169.1
313.15 K, x1 = 0.3059	1173.9	204.1
313.15 K, x1 = 0.4061	1180.6	235.9
313.15 K, x1 = 0.5025	1185.3	266.3
313.15 K, x1 = 0.5889	1188.6	293.8
313.15 K, x1 = 0.6844	1191.5	323.9
313.15 K, x1 = 0.7832	1193.9	354.7
313.15 K, x1 = 0.8654	1195.6	380.8
313.15 K, x1 = 0.9289	1196.6	400.8
318.15 K, x1 = 0.0522	1128.1	124.2
318.15 K, x1 = 0.1	1141	139.1
318.15 K, x1 = 0.1966	1158	169.7
318.15 K, x1 = 0.3059	1169.5	205
318.15 K, x1 = 0.4061	1176.6	237
318.15 K, x1 = 0.5025	1181.5	267.4
318.15 K, x1 = 0.5889	1184.9	295.3
318.15 K, x1 = 0.6844	1187.9	325.6
318.15 K, x1 = 0.7832	1190.4	356.5
318.15 K, x1 = 0.8654	1192.2	382.8
318.15 K, x1 = 0.9289	1193.3	403

Source: the NIST ThermoML archive (doi:10.1016/j.jct.2008.09.002)
